One series has as its system Neovison sp. Particulars: repeat dose other; oral; Mink.
For another series, the system named is Peromyscus polionotus. The note with it: oral.
A further series deals with Phasianus colchicus. Particulars: oral.
The test system of series [1] is Monkey. The note with it: chronic, oral.
Series [2] concerns Monkey. Particulars: chronic, oral. The source holds these as a separate data set.
For the next series, the system named is Chalcophaps sp. The note with it: oral.
The test system of series [3] is Mus musculus. Particulars: repeat dose other; oral.
Series [4] has as its system Rattus norvegicus. Particulars: oral; for NOEL: subchronic, diet, Fischer 344, Body Weight Changes: decrease + Food Consumption: decrease + Hematology: Hct decrease, Hgb decrease, RBC decrease, N-RBC increase, MCV ….
The test system of series [5] is Rattus norvegicus.
Series [6] deals with Rattus norvegicus. The note with it: oral, M/F.
In series [7] the test system is Rattus norvegicus. Particulars: Hershberger, oral, gavage, Sprague-Dawley, active + Antiandrogenic + anti-androgenic + PPS delayed.
The test system of series [8] is Rattus norvegicus. Particulars: chronic, oral.
Series [9] has as its system Rattus norvegicus. The note with it: developmental, oral, M, generation: F1.
In series [10] the test system is Mus musculus. Particulars: chronic; duration: 25 months; oral; diet; M/F; Swiss; Histopathology in lungs.
Series [11] has as its system Canidae. The note with it: repeat dose other; oral; Dog Other.
The subject of series [12] is Homo sapiens. Particulars: clinical; duration: 2 hours; inhalation; M/F; respiratory.
Series [13] relates to Monkey. The note with it: chronic; duration: 26 weeks; inhalation; M; Cynomolgus; respiratory.
The test system of series [14] is Homo sapiens. The note with it: clinical, oral.
Another series has as its system Coturnix japonica. The note with it: repeat dose other; oral.
Series [15] deals with Rattus norvegicus. Particulars: repeat dose other; oral.
Series [16] has as its system Canidae. The note with it: subchronic; duration: 13 weeks; oral; capsule; M/F; Beagle; neurological.
The subject of series [17] is Rattus norvegicus. Briefly: FEL; higher = less toxic. The note with it: short-term; duration: 10 days; inhalation; M/F; inflammation of the nasal passage.
The mark [18] stands for this setting: gavage, Crl:CD(SD), F1: AGD (mm).
Where [19] appears, read: chronic, duration: 2 years, oral, M/F, reduced weight gain, histopathology: rats.
The mark [20] stands for this setting: duration: 6 months, diet, M/F, increased thyroid weight.

The structures appear in SMILES notation. A value given as a limit tells only on which side of the number the result lay.

With `Clc1cccc(-c2ccc(Cl)c(Cl)c2Cl)c1Cl` [Aroclor 1254], the LOAEL in the series with Neovison sp. was 0.69 mg/kg-day; with Peromyscus polionotus, 0.68 mg/kg-day; in the series on Phasianus colchicus, 1.8 mg/kg-day; in the series on Monkey [1] (F, decreased antibody (IgG and IgM) response to sheep erythrocytes + Ocular exudate, inflamed and prominent Meibomian glands, distorted growth …), 0.005 mg/kg-day; in the series with Monkey [2] (duration: 5 years, capsule, Immune system: Toxicity), 0.005 mg/kg-day. The NOAEL came out at 0.14 mg/kg-day in the series with Neovison sp., 0.068 mg/kg-day in the series on Peromyscus polionotus and 0.18 mg/kg-day with Phasianus colchicus.
Turning to `CCCCOC(=O)c1ccccc1C(=O)OCCCC` [Dibutyl 1,2-benzenedicarboxylate], the LOAEL was 1.1 mg/kg-day with Chalcophaps sp.; 1830 mg/kg-day in the series with Mus musculus [3]; 600 mg/kg-day in the series on Rattus norvegicus [5] (subchronic, oral, M, mortality). Also, the NOAEL was found to be 0.11 mg/kg-day in the series with Chalcophaps sp.; 550 mg/kg-day with Mus musculus [3]; 125 mg/kg-day in the series with Rattus norvegicus [5] (subchronic, oral, M, mortality); 50 mg/kg-day in the series on Rattus norvegicus [6] (developmental, duration: 9 days, gavage, Sprague-Dawley, developmental); 125 mg/kg-day with Rattus norvegicus [8] (duration: 52 weeks, diet, Whole body: Increased mortality). Besides, the NOEL in the series on Rattus norvegicus [4] (F) was 177 mg/kg-day; with Rattus norvegicus [4] (M/F) it was less than 240 mg/kg-day; in the series with Rattus norvegicus [7] (duration: 5 days), 500 mg/kg-day; in the series on Rattus norvegicus [7] (duration: 10 days) it was 500 mg/kg-day; with Rattus norvegicus [9] (Albino, F1: AGD (units not specified)), 50 mg/kg-day; in the series with Rattus norvegicus [9] (setting [18]) it was 100 mg/kg-day. The same molecule displayed an LOEL in the series on Rattus norvegicus [9] (setting [18]) of 500 mg/kg-day.
In the series with Mus musculus [10], `N#CC(c1ccc(Cl)cc1)c1c(Cl)cc(-n2ncc(=O)[nH]c2=O)cc1Cl` (configuration not stated) [Diclazuril] registered an LOEL of 11 mg/kg-day and an NOEL of 3 mg/kg-day.
On to `C=O` [Formaldehyde], for which the NOAEL in the series with Canidae [11] was 9.4 mg/kg-day; in the series on Rattus norvegicus [4] (short-term, duration: 28 days, drinking water, M/F, Wistar, Clinical Observation: Yellowish discoloration of fur + Food Consumption: decrease + Water Consumption: decrease + Blood Chemistry: TP …), 25 mg/kg-day; with Rattus norvegicus [5] (setting [19]), 15 mg/kg-day; in the series with Monkey [13] it was 1.2 mg/m3; with Rattus norvegicus [6] (chronic, duration: 2 years, Wistar, gastrointestinal), 15 mg/kg-day; in the series on Rattus norvegicus [6] (short-term, duration: 4 weeks, drinking water, Wistar, gastrointestinal) it was 25 mg/kg-day. In addition, in the series with Rattus norvegicus [8] (duration: 2 years, drinking water, Gastrointestinal tract: Lesions), the no observed adverse effect level (NOAEL) came to 15 mg/kg-day. The LOAEL in the series on Rattus norvegicus [5] (setting [19]) worked out at 82 mg/kg-day; in the series with Homo sapiens [12], 0.491 mg/m3.
Regarding `CC1(C)[C@@H](O[C@H]2O[C@H](C(=O)O)[C@@H](O)[C@H](O)[C@H]2O[C@@H]2O[C@H](C(=O)O)[C@@H](O)[C@H](O)[C@H]2O)CC[C@]2(C)[C@H]3C(=O)C=C4[C@@H]5C[C@@](C)(C(=O)O)CC[C@]5(C)CC[C@@]4(C)[C@]3(C)CC[C@@H]12` [Glycyrrhizin], the no-observed-adverse-effect level (NOAEL) in the series with Homo sapiens [14] (duration: 8 weeks, capsule, F, Inhibition of the type-2 11b-hsd, with a consequent increase in concentrations of cortisol) is 2 mg/kg-day.
In the series with Coturnix japonica, `CC(=O)[O-].CC(=O)[O-].[Pb+2]` [Lead acetate] had an LOAEL of 11.3 mg/kg-day and an NOAEL of 1.13 mg/kg-day. In the series with Rattus norvegicus [15], this molecule registered an LOAEL of 80 mg/kg-day and an NOAEL of 8 mg/kg-day.
In the series with Monkey [1] (setting [20]), `S=C([S-])NCCNC(=S)[S-].[Mn+2]` [Maneb] returned an LEL of 15 mg/kg-day and an NOEL of 5 mg/kg-day. The molecule further returned an NOEL in the series on Monkey [2] (duration: 6 months, diet, Thyroid: Increased weight) of 5 mg/kg-day.
For `CN(C)[C@@H]1C(=O)C(C(N)=O)=C(O)[C@@]2(O)C(=O)C3=C(O)c4c(O)cccc4[C@@](C)(O)[C@H]3[C@H](O)[C@@H]12` [Oxytetracycline], the NOEL with Homo sapiens [14] (Selection of resistant enterobacteriaceae) stood at 0.033 mg/kg-day.
On to `C=C1C(CCl)(CCl)C2(Cl)C(Cl)C(Cl)C1(Cl)C2(Cl)Cl` (configuration not stated) [Toxaphene], for which the NOAEL worked out at 8 mg/kg-day in the series on Rattus norvegicus [15] and 5 mg/kg-day in the series on Canidae [16].
The molecule `CCN(CC)CC` [Triethylamine] registered an NOAEL in the series on Rattus norvegicus [5] (chronic, duration: 28 weeks, inhalation, M/F, no effects) of 1020 mg/m3. Besides, in the series with Rattus norvegicus [17], the FEL was determined as 4140 mg/m3.

For the origin of these results see EPA's ToxValDB 9.5.
